From the supplement of paper PMC13380429

Key:
Details in all cases: 72 h
HepG2 [1] = assay: cell viability relative to DMSO; higher = less toxic
Calu-3 [2] = assay: as above
Vero E6 [3] = assay: as above
U2OS [4] = assay: as above
Caco-2 [5] = assay: as above
HepG2 [6] = assay: relative viability EC50 (midpoint between 100% and the lowest measured viability); higher = less toxic
Calu-3 [7] = assay: as above
Vero E6 [8] = assay: as above
U2OS [9] = assay: as above
Caco-2 [10] = assay: as above
HepG2 [11] = assay: drug sensitivity score (DSS) for viability; higher = more toxic; extreme values may be limits of the assay
Calu-3 [12] = assay: as above
Vero E6 [13] = assay: as above
U2OS [14] = assay: as above
Caco-2 [15] = assay: as above

CO[C@@H](C)Cn1c(=O)n(C)c2cnc3ccc(-c4cncc(C(C)(C)O)c4)cc3c21
cell viability (HepG2 [1]; 1 nM): 94.4%
cell viability (HepG2 [1]; 10 nM): 99.7%
cell viability (HepG2 [1]; 100 nM): 95.8%
cell viability (HepG2 [1]; 1000 nM): 56.9%
cell viability (HepG2 [1]; 10000 nM): 14.8%
cell viability (Calu-3 [2]; 1 nM): 108%
cell viability (Calu-3 [2]; 10 nM): 89.8%
cell viability (Calu-3 [2]; 100 nM): 68%
cell viability (Calu-3 [2]; 1000 nM): 26.9%
cell viability (Calu-3 [2]; 10000 nM): 18%
cell viability (Vero E6 [3]; 1 nM): 96.4%
cell viability (Vero E6 [3]; 10 nM): 101%
cell viability (Vero E6 [3]; 100 nM): 87.2%
cell viability (Vero E6 [3]; 1000 nM): 54.3%
cell viability (Vero E6 [3]; 10000 nM): 28.9%
cell viability (U2OS [4]; 1 nM): 108%
cell viability (U2OS [4]; 10 nM): 102%
cell viability (U2OS [4]; 100 nM): 84%
cell viability (U2OS [4]; 1000 nM): 25.7%
cell viability (U2OS [4]; 10000 nM): 8.3%
cell viability (Caco-2 [5]; 1 nM): 97.2%
cell viability (Caco-2 [5]; 10 nM): 93.4%
cell viability (Caco-2 [5]; 100 nM): 82.4%
cell viability (Caco-2 [5]; 1000 nM): 35.6%
cell viability (Caco-2 [5]; 10000 nM): 25.9%
relative viability EC50 (HepG2 [6]): 0.974 µM
relative viability EC50 (Calu-3 [7]): 0.144 µM
relative viability EC50 (Vero E6 [8]): 0.514 µM
relative viability EC50 (U2OS [9]): 0.331 µM
relative viability EC50 (Caco-2 [10]): 0.238 µM
drug sensitivity score (HepG2 [11]): 9.8
drug sensitivity score (Calu-3 [12]): 17.4
drug sensitivity score (Vero E6 [13]): 10.2
drug sensitivity score (U2OS [14]): 15.7
drug sensitivity score (Caco-2 [15]): 14

CN1CC[C@@H](c2c(O)cc(O)c3c(=O)cc(-c4ccccc4Cl)oc23)[C@@H]1CO [P276-00]
cell viability (HepG2 [1]; 1 nM): 114%
cell viability (HepG2 [1]; 10 nM): 94.7%
cell viability (HepG2 [1]; 100 nM): 101%
cell viability (HepG2 [1]; 1000 nM): 6.6%
cell viability (HepG2 [1]; 10000 nM): 7.6%
cell viability (Calu-3 [2]; 1 nM): 108%
cell viability (Calu-3 [2]; 10 nM): 103%
cell viability (Calu-3 [2]; 100 nM): 94.5%
cell viability (Calu-3 [2]; 1000 nM): 59%
cell viability (Calu-3 [2]; 10000 nM): 38.2%
cell viability (Vero E6 [3]; 1 nM): 103%
cell viability (Vero E6 [3]; 10 nM): 95.8%
cell viability (Vero E6 [3]; 100 nM): 102%
cell viability (Vero E6 [3]; 1000 nM): 63.9%
cell viability (Vero E6 [3]; 10000 nM): 6.1%
cell viability (U2OS [4]; 1 nM): 97.6%
cell viability (U2OS [4]; 10 nM): 100%
cell viability (U2OS [4]; 100 nM): 90.3%
cell viability (U2OS [4]; 1000 nM): 49.3%
cell viability (U2OS [4]; 10000 nM): 3%
cell viability (Caco-2 [5]; 1 nM): 101%
cell viability (Caco-2 [5]; 10 nM): 108%
cell viability (Caco-2 [5]; 100 nM): 95.1%
cell viability (Caco-2 [5]; 1000 nM): 57.6%
cell viability (Caco-2 [5]; 10000 nM): 21.8%
relative viability EC50 (HepG2 [6]): 0.324 µM
relative viability EC50 (Calu-3 [7]): 0.604 µM
relative viability EC50 (Vero E6 [8]): 1.21 µM
relative viability EC50 (U2OS [9]): 0.878 µM
relative viability EC50 (Caco-2 [10]): 0.881 µM
drug sensitivity score (HepG2 [11]): 16.7
drug sensitivity score (Calu-3 [12]): 8.5
drug sensitivity score (Vero E6 [13]): 10.1
drug sensitivity score (U2OS [14]): 11.5
drug sensitivity score (Caco-2 [15]): 9.4

O=[N+]([O-])c1cccc2c(Br)n[nH]c12 [3-bromo-7-nitroindazole]
cell viability (HepG2 [1]; 1 nM): 94.4%
cell viability (HepG2 [1]; 10 nM): 99%
cell viability (HepG2 [1]; 100 nM): 98.3%
cell viability (HepG2 [1]; 1000 nM): 97.5%
cell viability (HepG2 [1]; 10000 nM): 102%
cell viability (Calu-3 [2]; 1 nM): 102%
cell viability (Calu-3 [2]; 10 nM): 88.4%
cell viability (Calu-3 [2]; 100 nM): 97.3%
cell viability (Calu-3 [2]; 1000 nM): 87%
cell viability (Calu-3 [2]; 10000 nM): 98.2%
cell viability (Vero E6 [3]; 1 nM): 100%
cell viability (Vero E6 [3]; 10 nM): 97.5%
cell viability (Vero E6 [3]; 100 nM): 98.6%
cell viability (Vero E6 [3]; 1000 nM): 95.8%
cell viability (Vero E6 [3]; 10000 nM): 91.2%
cell viability (U2OS [4]; 1 nM): 97.6%
cell viability (U2OS [4]; 10 nM): 101%
cell viability (U2OS [4]; 100 nM): 99%
cell viability (U2OS [4]; 1000 nM): 104%
cell viability (U2OS [4]; 10000 nM): 98.8%
cell viability (Caco-2 [5]; 1 nM): 106%
cell viability (Caco-2 [5]; 10 nM): 102%
cell viability (Caco-2 [5]; 100 nM): 93.8%
cell viability (Caco-2 [5]; 1000 nM): 104%
cell viability (Caco-2 [5]; 10000 nM): 99.3%
relative viability EC50 (HepG2 [6]): > 10 µM
relative viability EC50 (Calu-3 [7]): > 10 µM
relative viability EC50 (Vero E6 [8]): > 10 µM
relative viability EC50 (U2OS [9]): > 10 µM
relative viability EC50 (Caco-2 [10]): > 10 µM
drug sensitivity score (HepG2 [11]): 0
drug sensitivity score (Calu-3 [12]): 0
drug sensitivity score (Vero E6 [13]): 0
drug sensitivity score (U2OS [14]): 0
drug sensitivity score (Caco-2 [15]): 0

CC1(C)CCC(C)(C)c2cc(C3(c4ccc(C(=O)O)cc4)OCCO3)ccc21 [BMS-649]
cell viability (HepG2 [1]; 1 nM): 109%
cell viability (HepG2 [1]; 10 nM): 87.6%
cell viability (HepG2 [1]; 100 nM): 113%
cell viability (HepG2 [1]; 1000 nM): 108%
cell viability (HepG2 [1]; 10000 nM): 103%
cell viability (Calu-3 [2]; 1 nM): 96.7%
cell viability (Calu-3 [2]; 10 nM): 99%
cell viability (Calu-3 [2]; 100 nM): 100%
cell viability (Calu-3 [2]; 1000 nM): 91.5%
cell viability (Calu-3 [2]; 10000 nM): 109%
cell viability (Vero E6 [3]; 1 nM): 96%
cell viability (Vero E6 [3]; 10 nM): 97.6%
cell viability (Vero E6 [3]; 100 nM): 100%
cell viability (Vero E6 [3]; 1000 nM): 92.4%
cell viability (Vero E6 [3]; 10000 nM): 97.8%
cell viability (U2OS [4]; 1 nM): 95.2%
cell viability (U2OS [4]; 10 nM): 98.4%
cell viability (U2OS [4]; 100 nM): 101%
cell viability (U2OS [4]; 1000 nM): 103%
cell viability (U2OS [4]; 10000 nM): 99%
cell viability (Caco-2 [5]; 1 nM): 92.7%
cell viability (Caco-2 [5]; 10 nM): 95.5%
cell viability (Caco-2 [5]; 100 nM): 93.1%
cell viability (Caco-2 [5]; 1000 nM): 100%
cell viability (Caco-2 [5]; 10000 nM): 101%
relative viability EC50 (HepG2 [6]): > 10 µM
relative viability EC50 (Calu-3 [7]): > 10 µM
relative viability EC50 (Vero E6 [8]): > 10 µM
relative viability EC50 (U2OS [9]): > 10 µM
relative viability EC50 (Caco-2 [10]): > 10 µM
drug sensitivity score (HepG2 [11]): 0
drug sensitivity score (Calu-3 [12]): 0
drug sensitivity score (Vero E6 [13]): 0
drug sensitivity score (U2OS [14]): 0
drug sensitivity score (Caco-2 [15]): 0

COc1ccc(CC2NCCc3cc(OC)c(OC)cc32)cc1OC (stereo not given) [tetrahydropapaverine]
cell viability (HepG2 [1]; 1 nM): 99.1%
cell viability (HepG2 [1]; 10 nM): 99.9%
cell viability (HepG2 [1]; 100 nM): 91.5%
cell viability (HepG2 [1]; 1000 nM): 98.6%
cell viability (HepG2 [1]; 10000 nM): 103%
cell viability (Calu-3 [2]; 1 nM): 95.9%
cell viability (Calu-3 [2]; 10 nM): 86.9%
cell viability (Calu-3 [2]; 100 nM): 99.7%
cell viability (Calu-3 [2]; 1000 nM): 83.3%
cell viability (Calu-3 [2]; 10000 nM): 98.7%
cell viability (Vero E6 [3]; 1 nM): 94.3%
cell viability (Vero E6 [3]; 10 nM): 99.8%
cell viability (Vero E6 [3]; 100 nM): 95.3%
cell viability (Vero E6 [3]; 1000 nM): 98.6%
cell viability (Vero E6 [3]; 10000 nM): 104%
cell viability (U2OS [4]; 1 nM): 99.5%
cell viability (U2OS [4]; 10 nM): 93.2%
cell viability (U2OS [4]; 100 nM): 103%
cell viability (U2OS [4]; 1000 nM): 90.9%
cell viability (U2OS [4]; 10000 nM): 96.9%
cell viability (Caco-2 [5]; 1 nM): 99.8%
cell viability (Caco-2 [5]; 10 nM): 99%
cell viability (Caco-2 [5]; 100 nM): 99.5%
cell viability (Caco-2 [5]; 1000 nM): 102%
cell viability (Caco-2 [5]; 10000 nM): 94.4%
relative viability EC50 (HepG2 [6]): > 10 µM
relative viability EC50 (Calu-3 [7]): > 10 µM
relative viability EC50 (Vero E6 [8]): > 10 µM
relative viability EC50 (U2OS [9]): > 10 µM
relative viability EC50 (Caco-2 [10]): > 10 µM
drug sensitivity score (HepG2 [11]): 0
drug sensitivity score (Calu-3 [12]): 0
drug sensitivity score (Vero E6 [13]): 0
drug sensitivity score (U2OS [14]): 0
drug sensitivity score (Caco-2 [15]): 0

C[C@]12Cc3c[nH]nc3C[C@@H]1CC[C@@H]1[C@@H]2CC[C@@]2(C)[C@H]1CC[C@]2(C)O [stanozolol]
cell viability (HepG2 [1]; 1 nM): 103%
cell viability (HepG2 [1]; 10 nM): 98.5%
cell viability (HepG2 [1]; 100 nM): 101%
cell viability (HepG2 [1]; 1000 nM): 104%
cell viability (HepG2 [1]; 10000 nM): 94.1%
cell viability (Calu-3 [2]; 1 nM): 95%
cell viability (Calu-3 [2]; 10 nM): 100%
cell viability (Calu-3 [2]; 100 nM): 103%
cell viability (Calu-3 [2]; 1000 nM): 94.1%
cell viability (Calu-3 [2]; 10000 nM): 107%
cell viability (Vero E6 [3]; 1 nM): 101%
cell viability (Vero E6 [3]; 10 nM): 109%
cell viability (Vero E6 [3]; 100 nM): 102%
cell viability (Vero E6 [3]; 1000 nM): 106%
cell viability (Vero E6 [3]; 10000 nM): 95%
cell viability (U2OS [4]; 1 nM): 98.5%
cell viability (U2OS [4]; 10 nM): 101%
cell viability (U2OS [4]; 100 nM): 96.9%
cell viability (U2OS [4]; 1000 nM): 96.3%
cell viability (U2OS [4]; 10000 nM): 97.3%
cell viability (Caco-2 [5]; 1 nM): 101%
cell viability (Caco-2 [5]; 10 nM): 95%
cell viability (Caco-2 [5]; 100 nM): 104%
cell viability (Caco-2 [5]; 1000 nM): 107%
cell viability (Caco-2 [5]; 10000 nM): 91.4%
relative viability EC50 (HepG2 [6]): > 10 µM
relative viability EC50 (Calu-3 [7]): > 10 µM
relative viability EC50 (Vero E6 [8]): > 10 µM
relative viability EC50 (U2OS [9]): > 10 µM
relative viability EC50 (Caco-2 [10]): > 10 µM
drug sensitivity score (HepG2 [11]): 0
drug sensitivity score (Calu-3 [12]): 0
drug sensitivity score (Vero E6 [13]): 0
drug sensitivity score (U2OS [14]): 0
drug sensitivity score (Caco-2 [15]): 0
